Laboratory results from patent publication US6949652B2, “Crystalline forms of 3-isopropyl-6-[4-(2,5-difluoro-phenyl)-oxazol-5-yl]-[1,2,4]triazolo-[4,3-A]pyridine” (Pfizer, Inc., priority 2002, dated 2005).

Legend:
[1] = system: TNF-alpha production by human LPS-treated monocytes; assay: Inhibition of TNF-alpha production by human LPS-treated monocytes; assay type: cell-based; settings: Monocyte, human mononuclear cells, 4 hours, TNF-α ELISA, read-out: IC50 in the TNFα in vitro assay
Protocol: Inhibition of TNF-alpha Production by Human LPS-treated Monocytes
Mononuclear cells are isolated from heparinized blood (1.5 ml of 1000 units/ml heparin for injection, Elkins-Sinn, Inc. added to each 50 ml sample) using Accuspin System-Histopaque-1077 tubes (Sigma A-7054). Thirty-five milliliters of whole blood are added to each tube and the tubes are centrifuged at 2100 rpm for 20 minutes in a Beckman GS-6KR centrifuge with the brake off at room temperature. The mononuclear cells which collect at the interface are removed, diluted with Macrophage serum free medium (Gibco-BRL) (Medium) to achieve a final volume of 50 ml, and collected by centrifugation for 10 minutes. The supernatant is discarded and the cell pellet is washed 2 times with 50 ml of Medium. A sample of the suspended cells is taken before the second wash for counting. Based on this count, the washed cells are diluted with Medium containing 1% FBS to a final concentration of 2.7×10^6 cells/ml and 75 μl of the cell suspension is added to each well of a 96 well plate.
3-isopropyl-6-[4-(2,5-difluoro-phenyl)-oxazol-5-yl]-[1,2,4]triazolo-[4,3-a]pyridine may be tested at final concentrations from 2 μM to 0.016 μM, but may be tested at other concentrations, depending on desire. […]
Supernatants are analyzed for TNF-α content using R&D ELISA. […]
The amount of TNF-α immunoreactivity in the samples is calculated as follows: […]

MAPKAP kinase-2 = assay: MAPKAP Kinase-2 assay (LPS-stimulated monocytes, immunoprecipitation, kinase activity); assay type: cell-based; settings: human monocytes, LPS 30 minutes, MAPKAP kinase-2 immunoprecipitate; read-out: IC50 in the MAPKAP in vitro assay
Protocol: Mononuclear cells are collected from heparinized human blood as detailed above. The washed cells are seeded into 6-well cluster plates at a density of 1×10^7 cells/well (in 2 ml of Medium). The plates are incubated at 37° C. in a 5% CO2 environment for 2 hours to allow adherence of the monocytes, after which time media supernatants containing non-adherent cells are removed by aspiration and 2 ml of fresh medium are added to each well. Plates are incubated overnight at 37° C. in a 5% CO2 environment.
Media are removed by aspiration. The attached cells are rinsed twice with fresh Medium, then 2 ml of D-MEM medium containing 10% heat inactivated FBS are added to each well. 3-isopropyl-6-[4-(2,5-difluoro-phenyl)-oxazol-5-yl]-[1,2,4]triazolo-[4,3-a]pyridine is prepared as a 30 mM stock solution in DMSO and diluted to 1250, 250, 50, 10, 2, and 0.4 μM in D-MEM containing 1% DMSO and 10% FBS. To individual wells of the monocyte cultures, 20 μl of these 3-isopropyl-6-[4-(2,5-difluoro-phenyl)-oxazol-5-yl]-[1,2,4]triazolo-[4,3-a]pyridine dilutions are added resulting in final 3-isopropyl-6-[4-(2,5-difluoro-phenyl)-oxazol-5-yl]-[1,2,4]triazolo-[4,3-a]pyridine concentrations of 12.5, 2.5, 0.5, 0.1, 0.02 and 0.004 μM. After a 10 minute preincubation period, 20 μl of a 10 μg/ml LPS solution are added to each well and the plates are incubated at 37° C. for 30 minutes. […]

TNFα = assay: In vivo inhibition of TNFα (LPS-injected rats, serum TNFα ELISA); settings: Rattus norvegicus, ip, drug 1 hour before LPS i.p., serum TNFα 90 minutes later
Protocol: In Vivo Inhibition of TNFα Rats were weighed and dosed with vehicle (0.5% methyl cellulose, Sigma) or drug. One hour later, animals were injected i.p. with LPS (50 ug/rat, Sigma L-4130). Ninety minutes later, animals were sacrificed by asphyxiation with CO2 and bled by cardiac puncture. Blood was collected in Vaccutainer tubes and spun for 20 minutes at 3000 rpm. Serum was assayed for TNFα levels using an ELISA (R&D Systems).

[2] = Solid-state stability / dehydration of hydrate crystal forms; assay type: physicochemical; settings: for Dehydration temperature range: solid crystal form
Protocol: Differential Scanning Calorimetry (DSC) analysis was carried out on either TA Instruments DSC2920 or TA instrument Q1000 or a Mettler DSC 821, calibrated with indium. DSC sample was prepared by weighing 2-4 mg of material in an aluminum pan with a pinhole. The sample was heated under nitrogen, at a rate of 5° C. or 10° C. per minute from 3 to 300 C.

Work on CC(C)c1nnc2ccc(-c3ocnc3-c3cc(F)ccc3F)cn12 [6-[4-(2,5-Difluoro-phenyl)-oxazol-5-yl]-3-isopropyl-[1,2,4]triazolo-[4,3-a]pyridine] yielded an IC50 [1] of less than 10 µM, an IC50 (MAPKAP kinase-2) of less than 10 µM and an ED50 (TNFα) of less than 50 mg/kg.
For CC(C)c1nnc2ccc(-c3ocnc3-c3cc(F)ccc3F)cn12 [Form D, 3-Isopropyl-6-[4-(2,5-difluoro-phenyl)-oxazol-5-yl]-[1,2,4]triazolo-[4,3-a]pyridine form D], the Dehydration temperature range [2] was 30 to 70 °C.
With CC(C)c1nnc2ccc(-c3ocnc3-c3cc(F)ccc3F)cn12 [Form E, 3-Isopropyl-6-[4-(2,5-difluoro-phenyl)-oxazol-5-yl]-[1,2,4]triazolo-[4,3-a]pyridine form E] the “Form conversion upon dehydration” value [2] was “converts to Form B upon dehydration” and the Dehydration temperature range [2] was 75 to 100 °C.
